Assay results reported in ChEMBL document CHEMBL1125003, “Synthesis, biological evaluation, and quantitative structure-activity relationship analysis of [beta-(Aroylamino)ethyl]piperazines and -piperidines and [2-[(Arylamino)carbonyl]ethyl]piperazines, -pyrazinopyridoindoles, and -pyrazinoisoquinolines. A new class of potent H1 antagonists” (J Med Chem, 1990).
Several values for one entry are separate records, joined by “and”; a condition that tells them apart may be missing. Identical values can stand only once.

The compounds below were run against Histamine H1 receptor (Cavia porcellus, UniProt P31389) (assay: Antihistaminic activity against Histamine H1 receptor was measured on isolated terminal part of guinea pig ileum). Conditions: read-out: I50.
Sequence of Histamine H1 receptor (P31389 whole entry): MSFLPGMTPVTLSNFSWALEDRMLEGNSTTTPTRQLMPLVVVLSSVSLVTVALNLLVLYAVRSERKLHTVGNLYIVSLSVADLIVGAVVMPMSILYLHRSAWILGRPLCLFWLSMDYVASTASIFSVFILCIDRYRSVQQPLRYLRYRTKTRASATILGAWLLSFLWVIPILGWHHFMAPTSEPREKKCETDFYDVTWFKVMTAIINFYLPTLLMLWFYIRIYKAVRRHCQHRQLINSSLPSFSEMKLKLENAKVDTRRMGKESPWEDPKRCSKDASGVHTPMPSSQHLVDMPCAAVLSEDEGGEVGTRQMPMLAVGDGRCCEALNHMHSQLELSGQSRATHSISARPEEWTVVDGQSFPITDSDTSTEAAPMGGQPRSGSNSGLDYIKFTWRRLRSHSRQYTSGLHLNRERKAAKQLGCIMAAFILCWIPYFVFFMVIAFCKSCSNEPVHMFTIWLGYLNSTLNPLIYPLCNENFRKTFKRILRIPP
Format: tissue-based
COc1ccccc1NC(=O)CCN1CCC(Cc2ccccc2)CC1 gave an IC50 of 963 nM.

Same assay, conditions: read-out: I50 (converted)
Work on NN1CCN2Cc3[nH]c4ccccc4c3CC2C1 (stereo unspecified) yielded an IC50 of 925 nM. For ClN1CCN2Cc3[nH]c4ccccc4c3CC2C1 (stereo unspecified), the IC50 was 206 nM. With O=C(CCN1CCN(Cc2ccccc2)CC1)Nc1ccccc1[N+](=O)[O-] the IC50 was 1700 nM and 2040 nM. In the case of O=C(NCCN1CCC(Cc2ccccc2)CC1)c1ccccc1Cl, the IC50 is reported as 799 nM and 785 nM. With O=C(NCCN1CCN(Cc2ccccc2)CC1)c1ccccc1Br the IC50 was 421 nM and 497 nM. Work on COc1ccccc1C(=O)NCCN1CCN2Cc3[nH]c4ccccc4c3CC2C1 (stereo unspecified) yielded an IC50 of 364 nM. Work on CN1CCN2Cc3[nH]c4ccccc4c3CC2C1 (stereo unspecified) yielded an IC50 of 283 nM. Work on c1ccc2c3c([nH]c2c1)CN1CCNCC1C3 (stereo unspecified) yielded an IC50 of 535 nM. With O=C(CCN1CCN2Cc3ccccc3CC2C1)Nc1ccccc1Cl (stereo unspecified) the IC50 was 677 nM and 676 nM. In the case of O=C(CCN1CCN(Cc2ccccc2)CC1)Nc1ccccc1F, the IC50 is reported as 1320 nM and 908 nM. In the case of O=C(NCCN1CCN(Cc2ccccc2)CC1)c1ccccc1[N+](=O)[O-], the IC50 is reported as 1320 nM and 1570 nM. For Cc1ccccc1C(=O)NCCN1CCC(Cc2ccccc2)CC1, the IC50 was 1070 nM and 1190 nM. Compound O=C(CCN1CCN2Cc3ccccc3CC2C1)Nc1ccccc1 (stereo unspecified) has an IC50 of 1340 nM. O=C(CCN1CCC(Cc2ccccc2)CC1)Nc1ccccc1Cl was tested, and the IC50 was 561 nM and 560 nM. In the case of O=C(NCCN1CCN(Cc2ccccc2)CC1)c1ccccc1, the IC50 is reported as 6940 nM and 8500 nM. In the case of O=C(NCCN1CCC(Cc2ccccc2)CC1)c1ccccc1Br, the IC50 is reported as 661 nM and 673 nM. CCc1ccccc1NC(=O)CCN1CCN2Cc3ccccc3CC2C1 (stereo unspecified) was tested, and the IC50 was 525 nM and 523 nM. For O=C(CCN1CCN2Cc3[nH]c4ccccc4c3CC2C1)Nc1ccccc1Cl (stereo unspecified), the IC50 was 979 nM and 978 nM. With CCc1ccccc1NC(=O)CCN1CCN(Cc2ccccc2)CC1 the IC50 was 778 nM and 939 nM. For Cc1ccccc1C(=O)NCCN1CCN(Cc2ccccc2)CC1, the IC50 was 7120 nM and 7110 nM. For O=C(CCN1CCN(Cc2ccccc2)CC1)Nc1ccccc1Cl, the IC50 was 836 nM and 1010 nM. COc1ccccc1NC(=O)CCN1CCC(Cc2ccccc2)CC1 was tested, and the IC50 was 965 nM. For CCc1ccccc1NC(=O)CCN1CCN2Cc3[nH]c4ccccc4c3CC2C1 (stereo unspecified), the IC50 was 634 nM. For O=C(CCN1CCN2Cc3ccccc3CC2C1)Nc1ccccc1[N+](=O)[O-] (stereo unspecified), the IC50 was 1320 nM and 1310 nM. For O=C(NCCN1CCN(Cc2ccccc2)CC1)c1ccccc1Cl, the IC50 was 696 nM and 838 nM. With O=C(CCN1CCN2Cc3[nH]c4ccccc4c3CC2C1)Nc1ccccc1 (stereo unspecified) the IC50 was 1600 nM. In the case of O=C(CCN1CCN2Cc3[nH]c4ccccc4c3CC2C1)Nc1ccccc1[N+](=O)[O-] (stereo unspecified), the IC50 is reported as 1740 nM. For O=C(NCCN1CCC(Cc2ccccc2)CC1)c1ccccc1, the IC50 was 1550 nM and 1740 nM. With O=C(CCN1CCC(Cc2ccccc2)CC1)Nc1ccccc1F the IC50 was 832 nM and 822 nM. With O=C(CCN1CCN(Cc2ccccc2)CC1)Nc1ccccc1 the IC50 was 2170 nM and 2200 nM. Work on O=[N+]([O-])N1CCN2Cc3[nH]c4ccccc4c3CC2C1 (stereo unspecified) yielded an IC50 of 375 nM. CCc1ccccc1NC(=O)CCN1CCC(Cc2ccccc2)CC1 was tested, and the IC50 was 477 nM and 485 nM. O=C(CCN1CCC(Cc2ccccc2)CC1)Nc1ccccc1 was tested, and the IC50 was 1510 nM and 1520 nM. O=C(NCCN1CCN(Cc2ccccc2)CC1)c1ccccc1I was tested, and the IC50 was 345 nM and 401 nM. With O=C(CCN1CCN2Cc3[nH]c4ccccc4c3CC2C1)Nc1ccccc1F (stereo unspecified) the IC50 was 1280 nM and 1270 nM.
